What was measured:
[1] = xn = mol fraction of the nth substance listed; settings: 100 kPa, Liquid, Vibrating tube method
[2] = excess molar enthalpy (molar enthalpy of mixing); xn = mol fraction of the nth substance listed; settings: 100 kPa, Liquid, Calvet calorimetry

CCCC[N+](C)(C)C.O=S(=O)([N-]S(=O)(=O)C(F)(F)F)C(F)(F)F [butyltrimethylammonium bis(trifluoromethylsulfonyl)imide] + CCO
Settings | excess molar enthalpy [kcal/mol] | mass density [kg/m3]
[1], 318.15 K, x2 = 0.5031 | – | 1271
[1], 318.15 K, x2 = 0.6487 | – | 1209
[1], 318.15 K, x2 = 0.7823 | – | 1118.6
[1], 318.15 K, x2 = 0.8561 | – | 1043.1
[1], 318.15 K, x2 = 0.8763 | – | 1017.4
[1], 318.15 K, x2 = 0.9039 | – | 977.1
[1], 318.15 K, x2 = 0.95 | – | 893.8
[1], 318.15 K, x2 = 0.9745 | – | 838
[1], 323.15 K, x2 = 0 | – | 1370.9
[1], 323.15 K, x2 = 0.1284 | – | 1353.1
[1], 323.15 K, x2 = 0.2585 | – | 1330.4
[1], 323.15 K, x2 = 0.3814 | – | 1302.6
[1], 323.15 K, x2 = 0.5031 | – | 1266.5
[1], 323.15 K, x2 = 0.6487 | – | 1204.4
[1], 323.15 K, x2 = 0.7823 | – | 1114
[1], 323.15 K, x2 = 0.8561 | – | 1038.4
[1], 323.15 K, x2 = 0.8763 | – | 1012.7
[1], 323.15 K, x2 = 0.9039 | – | 972.4
[1], 323.15 K, x2 = 0.95 | – | 889.2
[1], 323.15 K, x2 = 0.9745 | – | 833.4
[1], 328.15 K, x2 = 0 | – | 1366.6
[1], 328.15 K, x2 = 0.1284 | – | 1348.7
[1], 328.15 K, x2 = 0.2585 | – | 1325.9
[1], 328.15 K, x2 = 0.3814 | – | 1298.1
[1], 328.15 K, x2 = 0.5031 | – | 1261.9
[1], 328.15 K, x2 = 0.6487 | – | 1199.7
[1], 328.15 K, x2 = 0.7823 | – | 1109.2
[1], 328.15 K, x2 = 0.8561 | – | 1033.7
[1], 328.15 K, x2 = 0.8763 | – | 1008
[1], 328.15 K, x2 = 0.9039 | – | 967.7
[1], 328.15 K, x2 = 0.95 | – | 884.5
[1], 328.15 K, x2 = 0.9745 | – | 828.8
[1], 333.15 K, x2 = 0 | – | 1362.3
[1], 333.15 K, x2 = 0.1284 | – | 1344.3
[1], 333.15 K, x2 = 0.2585 | – | 1321.5
[1], 333.15 K, x2 = 0.3814 | – | 1293.7
[1], 333.15 K, x2 = 0.5031 | – | 1257.4
[1], 333.15 K, x2 = 0.6487 | – | 1195.1
[1], 333.15 K, x2 = 0.7823 | – | 1104.5
[1], 333.15 K, x2 = 0.8561 | – | 1028.9
[1], 333.15 K, x2 = 0.8763 | – | 1003.3
[1], 333.15 K, x2 = 0.9039 | – | 963
[1], 333.15 K, x2 = 0.95 | – | 879.8
[1], 333.15 K, x2 = 0.9745 | – | 824.2
[2], 308.15 K, x2 = 0.1229 | 0.203 | –
[2], 308.15 K, x2 = 0.2546 | 0.389 | –
[2], 308.15 K, x2 = 0.2623 | 0.396 | –
[2], 308.15 K, x2 = 0.2752 | 0.411 | –
[2], 308.15 K, x2 = 0.3943 | 0.51 | –
[2], 308.15 K, x2 = 0.5084 | 0.559 | –
[2], 308.15 K, x2 = 0.5133 | 0.551 | –
[2], 308.15 K, x2 = 0.5408 | 0.557 | –
[2], 308.15 K, x2 = 0.6267 | 0.544 | –
[2], 308.15 K, x2 = 0.7252 | 0.509 | –
[2], 308.15 K, x2 = 0.7354 | 0.503 | –
[2], 308.15 K, x2 = 0.7659 | 0.467 | –
[2], 308.15 K, x2 = 0.8645 | 0.352 | –
[2], 313.15 K, x2 = 0.113 | 0.187 | –
[2], 313.15 K, x2 = 0.2393 | 0.374 | –
[2], 313.15 K, x2 = 0.2549 | 0.385 | –
[2], 313.15 K, x2 = 0.3933 | 0.518 | –
[2], 313.15 K, x2 = 0.4936 | 0.569 | –
[2], 313.15 K, x2 = 0.4959 | 0.567 | –
[2], 313.15 K, x2 = 0.499 | 0.568 | –
[2], 313.15 K, x2 = 0.6245 | 0.564 | –
[2], 313.15 K, x2 = 0.7406 | 0.507 | –
[2], 313.15 K, x2 = 0.8666 | 0.369 | –
[2], 323.15 K, x2 = 0.1187 | 0.185 | –
[2], 323.15 K, x2 = 0.2569 | 0.406 | –
[2], 323.15 K, x2 = 0.2694 | 0.422 | –
[2], 323.15 K, x2 = 0.3969 | 0.538 | –
[2], 323.15 K, x2 = 0.527 | 0.6 | –
[2], 323.15 K, x2 = 0.5431 | 0.611 | –
[2], 323.15 K, x2 = 0.6214 | 0.598 | –
[2], 323.15 K, x2 = 0.7499 | 0.548 | –
[2], 323.15 K, x2 = 0.8707 | 0.413 | –

— the NIST ThermoML archive (doi:10.1021/je500696p)
